Type in all cases: cell-based, human
Assay [1] has as its system TNFR1 ectodomain shedding in NCI-H292 cells. The experiment in a line: TNFR1 ectodomain shedding assay (sTNFR1 sandwich ELISA of cell culture supernatants). The settings on record: for sTNFR1 in cell culture supernatant following PMA treatment: 24 hours. The procedure: The amount of TNFR1 ectodomain shedding occurring in each of these cell lines is depicted in FIG. 8. The levels of sTNFR1 ectodomain in cell culture supernatants from these cell lines were assayed using a commercially available sandwich-enzyme-linked immunosorbent assay (ELISA) technique (R & D Systems) with a lower limit of detection of 7.8 pg/ml.
Following the introduction and selection of these constructs in the host cell lines, the amount of TNFR1 ectodomain shedding occurring in each of the lines was determined by measuring the levels of sTNFR1 ectodomain in cell culture supernatants using a commercially available sandwich-enzyme-linked immunosorbent assay (ELISA) technique (R & D Systems) with a lower limit of detection of 7.8 pg/ml.
The amount of TNFR1 ectodomain shedding occurring in each of the stably transfected cell lines described in Example 9 was assessed. The levels of sTNFR1 ectodomain in cell culture supernatants from these cell lines were assayed by a commercially available sandwich-enzyme-linked immunosorbent assay (ELISA) technique (R & D Systems) with a lower limit of detection of 7.8 pg/ml. The protocol used was according to the manufacturer's instructions. The results of this assay are depicted in FIG. 8 as the mean of 5 independent experiments, with accompanying SEM (standard error of the mean) indicated above the bar.
A similar experiment analyzing the ability of ARTS-1 overexpression to potentiate the cleavage and shedding of TNFR ectodomain from the surface of NCI-H292 cells in response to PMA stimulation using these same cell lines is shown in FIG. 9.
This assay was further used to measure the sTNFR1 ectodomain shedding activity of ARTS-1 peptidase/protease catalytic mutants. The construction of these mutations (and resulting mutant cell lines) are described in Example 10. The ability of theses mutants to regulate sTNFR1 shedding was ascertained by measuring the concentration of sTNFR1 in the cell culture supernatant as described above in this Example.
Results from a second screening method are illustrated in FIG. 14, Panel B. In this screening method, cultured human NCI-H292 pulmonary mucoepidermoid carcinoma cells were again exposed to a test compound, PMA, at a concentration of 0.1 μM. Culture medium supernatant was collected from the cultures at intervals between 0 and 24 hours post treatment. The samples were analyzed by the TNFR1 ectodomain shedding assay using an ELISA as described in Example 11. In this assay, anti-sTNFR1 antibody was used to quantitate the concentrations of sTNFR1 in the cell culture supernatants. […] Thus, this screening method also identified a compound that is a candidate for further drug development.
In general terms: An ELISA detects its analyte on a solid surface through an enzyme-linked reagent.

For assay [2], the system named is ARTS-1 protein in NCI-H292 cells. Briefly: Drug screening: ARTS-1 protein expression by Western immunoblot of membrane protein fractions. The settings on record: 0.1 μM PMA, 0 to 24 hours, membrane protein fraction. The procedure:
In another embodiment of the screening method of the present invention, Western immunoblotting is used to assess the levels of ARTS-1 protein following exposure of a cell culture to a test compound. In this embodiment, cultured cells were exposed to a test compound, in this case, 4b-phorbol 12-myristate 13-acetate (PMA), and samples of tissue were collected at 0, 2, 8 and 24 hours following the exposure. Membrane proteins were isolated from these cells and subjected to Western immunoblot analysis, as described in Examples 4 and 5, using antiserum specific for the ARTS-1 protein. […] It is contemplated that compounds that can upregulate ARTS-1 protein levels are therapeutically advantageous, as such compounds can suppress a proinflammatory immune response by enhancing receptor ectodomain shedding. However, an understanding of the mechanism(s) is not required in order to use the present invention. […]
In the first method, cultured human NCI-H292 pulmonary mucoepidermoid carcinoma cells were exposed to a test compound, in this case, 4b-phorbol 12-myristate 13-acetate (PMA) at a concentration of 0.1 μM. […] The protein samples were analyzed in a Western immunoblot using the anti-ARTS-1 antiserum at the primary detection antibody, as described in Examples 4 and 5. The protein fractions were analyzed in duplicate, and the relative densitometry units for each lane are shown beneath the columns. […]
A general note: In western blotting, separated proteins are transferred to a membrane and probed.

For assay [3], the system named is membrane-associated TNFR1 in NCI-H292 cells. Briefly: Membrane-associated TNFR1 by Western immunoblot of crude membrane fractions of stably transfected cells. The procedure: The degree of TNFR1 ectodomain shedding as a function of ARTS-1 protein expression was also assessed indirectly by determining the relative amounts of membrane-bound TNFR1 fragment in each of the stably transfected cell lines described above using the Western immunoblotting technique described in Example 5. Crude membrane fractions from the stably transfected NCI-H292 cells described in Example 9 were prepared and resolved by SDS-PAGE and analyzed by Western immunoblotting using a murine anti-human TNFR1 monoclonal primary antibody (R & D System) which detects the membrane fragment of the TNF receptor.
The degree of TNFR1 ectodomain shedding as a function of ARTS-1 protein expression was also indirectly assessed by determining the relative amounts of membrane-bound TNFR1 fragment in each of the stably transfected cell lines described in Example 9 using Western immunoblotting.
Crude membrane fractions from the stably transfected NCI-H292 cells described in Example 9 were prepared and protein concentrations were quantitated, as described above. Samples from these membrane-derived protein preparations were resolved by SDS-PAGE and analyzed by Western immunoblotting as described above in Example 5 using a murine anti-human TNFR1 monoclonal primary antibody which detected the membrane fragment of the receptor (R & D System). […]

Entries after “also recorded” stand apart in the source; their conditions may differ.

`CCCCCCCCCCCCCC(=O)O[C@@H]1[C@@H](C)[C@@]2(O)[C@@H](C=C(CO)C[C@]3(O)C(=O)C(C)=C[C@@H]23)[C@@H]2C(C)(C)[C@]12OC(C)=O` [PMA, 4b-phorbol 12-myristate 13-acetate]: the “sTNFR1 in cell culture supernatant following PMA treatment” value in assay [1] (0.1 μM PMA, NCI-H292 cell line containing only the empty pTarget vector) came out at 415.3 ± 4.5 pg/mL; in assay [1] (0.1 μM PMA, NCI-H292 cell line overexpressing the ARTS-1 cDNA), 914.2 ± 9.5 pg/mL. Moreover, in assay [1] (NCI-H292 cells, 0.1 μM PMA, over the course of 24 hours, n=5, P<0.05), the “sTNFR1 shedding compared to a control culture” value is reported as “increase in sTNFR1 shedding”. Besides, the ARTS-1 protein expression result in assay [2] was “upregulation of ARTS-1 protein expression; also recorded: increase in ARTS-1 protein expression”.

B1: ARTS-1: aminopeptidase regulator of type I, 55 kDa tumor necrosis factor receptor ectodomain shedding; 941 amino acids, SEQ ID NO:2; overexpressed from pTarget (protein, listed as Homo sapiens)
chain: MVFLPLKWSLATMSFLLSSLLALLTVSTPSWCQSTEASPKRSDGTPFPWNKIRLPEYVIPVHYDLLIHANLTTLTFWGTTKVEITASQPTSTIILHSHHLQISRATLRKGAGERLSEEPLQVLEHPRQEQIALLAPEPLLVGLPYTVVIHYAGNLSETFHGFYKSTYRTKEGELRILASTQFEPTAARMAFPCFDEPAFKASFSIKIRREPRHLAISNMPLVKSVTVAEGLIEDHFDVTVKMSTYLVAFIISDFESVSKITKSGVKVSVYAVPDKINQADYALDAAVTLLEFYEDYFSIPYPLPKQDLAAIPDFQSGAMENWGLTTYRESALLFDAEKSSASSKLGITMTVAHELAHQWFGNLVTMEWWNDLWLNEGFAKFMEFVSVSVTHPELKVGDYFFGKCFDAMEVDALNSSHPVSTPVENPAQIREMFDDVSYDKGACILNMLREYLSADAFKSGIVQYLQKHSYKNTKNEDLWDSMASICPTDGVKGMDGFCSRSQHSSSSSHWHQEGVDVKTMMNTWTLQKGFPLITITVRGRNVHMKQEHYMKGSDGAPDTGYLWHVPLTFITSKSDMVHRFLLKTKTDVLILPEEVEWIKFNVGMNGYYIVHYEDDGWDSLTGLLKGTHTAVSSNDRASLINNAFQLVSIGKLSIEKALDLSLYLKHETEIMPVFQGLNELIPMYKLMEKRDMNEVETQFKAFLIRLLRDLIDKQTWTDEGSVSERMLRSQLLLLACVHNYQPCVQRAEGYFRKWKESNGNLSLPVDVTLAVFAVGAQSTEGWDFLYSKYQFSLSSTEKSQIEFALCRTQNKEKLQWLLDESFKGDKIKTQEFPQILTLIGRNPVGYPLAWQFLRKNWNKLVQKFELGSSSIAHMVMGTTNQFSTRTRLEEVKGFFSSLKENGSQLRCVQQTIETIEENIGWMDKNFDKIRVWLQSEKLERM
notes: aminopeptidase regulator of type I, 55 kDa tumor necrosis factor receptor ectodomain shedding; overexpressed from pTarget
On to B1, for which the “increase in sTNFR1 shedding” value in assay [1] (overexpression of ARTS-1 protein in stably transfected NCI-H292 cells vs Mock or WT controls) is given as “approximately 200%”. In assay [1] (stably transfected NCI-H292 cell lines, mean of 5 independent experiments), the “level of sTNFR1 in cell culture supernatant compared to control cell lines (WT, Mock)” value is reported as “significant increase; also recorded: significantly elevated level of sTNFR1”. Also, the “membrane-associated TNFR1 relative to WT or Mock cell lines” value in assay [3] is “decrease”.

The values above are taken from patent US7135303B2, “Regulators of type-1 tumor necrosis factor receptor and other cytokine receptor shedding” (The United States of America as represented by the …, priority 2000, dated 2006).
